The test system of series [1] is HL 60 cells. Description: differentiation induction of HL 60 cells to macrophages (NBT reduction). The series is classed as cell-based, human. Particulars: relative to calcitriol; 96 hours incubation. How it is done: The differentiation-stimulating action of calcitriol analogs is also detected quantitatively.
It is known in the literature [D. J. Mangelsdorf et al., J. Cell. Biol. 98, 391 (1984)] that the treatment of human leukemia cells (promyelocyte cell line HL 60) in vitro with calcitriol induces the differentiation of cells to macrophages.
HL 60 cells are cultivated in tissue culture medium (RPMI 10% fetal calf serum) at 37° C. in an atmosphere of 5% CO2 in air.
For substance testing, the cells are centrifuged off, and 2.0×10^5 cells/ml in phenol red-free tissue culture medium are taken up. The test substances are dissolved in ethanol and diluted to the desired concentration with tissue culture medium without phenol red. The dilution stages are mixed with the cell suspension at a ratio of 1:10, and 100 il each of this cell suspension that is mixed with substance is pipetted into an indentation of a 96-hole plate. For control, a cell suspension is mixed analogously with the solvent.
After incubation for 96 hours at 37° C. in 5% CO2 in air, 100 il of an NBT-TPA solution (nitro blue tetrazolium (NBT), final concentration in the batch of 1 mg/ml, tetradecanoyl phorbolmyristate-13-acetate (TPA), final concentration in the batch of 2×10^−7 mol/l) is pipetted into each indentation of the 96-hole plate in the cell suspension.
By incubation for 2 hours at 37° C. and 5% CO2 in air, NBT is reduced to insoluble formazan because of the intracellular oxygen radical release, stimulated by TPA, in the cells that are differentiated to macrophages.
To complete the reaction, the indentations of the 96-hole plate are suctioned off, and the cells are affixed to the bottom of the plate by adding methanol and dried after affixing. To dissolve the intracellular formazan crystals that are formed, 100 il of potassium hydroxide (2 mol/l) and 100 il of dimethyl sulfoxide are pipetted into each indentation and ultrasonically treated for 1 minute. The concentration of formazan is measured by spectrophotometry at 650 nm.
As a yardstick for the differentiation induction of HL 60 cells to macrophages, the concentration of formed formazan applies.

Series [2] can be described thus: acute hypercalcemic action in rats (serum calcium after one-time subcutaneous administration). Type of series: in vivo, rat. Particulars: relative to calcitriol, male rats. On the procedure:
To determine the acute hypercalcemic action of various calcitriol derivatives, the test that is described below is carried out:
The action of control (solution base), reference substance (1,25-dihydroxy vitamin D3=calcitriol) and test substance is tested in each case after one-time subcutaneous administration in groups of 10 healthy male rats (140-170 g). During the testing time, the rats are kept in special cages to determine the excretion of water and mineral substances. Urine is collected in 2 fractions (0-16 hours and 16-22 hours). An oral dose of calcium (0.1 mmol of calcium in 6.5% alpha-hydroxypropyl cellulose, 5 ml/animal) replaces at 1600 hours the calcium intake that is lacking by food deprivation. At the end of the test, the animals are sacrificed by decapitation and exsanguinated to determine the serum-calcium values. For the primary screening test in vivo, an individual standard dose (200 ig/kg) is tested. For selected substances, the result is supported by establishing a dose-effect relation.
A hypercalcemic action is shown in serum-calcium level values that are higher than in the control.
The significance of differences occurring between substance groups and controls as well as between test substance and reference substance are supported with suitable statistical processes.

A short description of series [3]: DNFB-induced allergic contact allergy in the mouse (DNFB-DTH). The series is classed as in vivo. To be noted: result in words; contact allergy in the mouse. An excerpt:
58, 179-204 (1999)]. The model of the dinitrofluorobenzene (DNFB)-induced allergic contact allergy in the mouse represents an inflammatory skin disease with the background of an inflammatory reaction of the delayed type (delayed type hypersensitivity; DTH). The inflammatory phase of the contact allergy is triggered by a multi-phase reaction. A repeated contact with the topically effective contact allergen DNFB (25 il of a 0.5% (w/v) DNFB solution in acetone/olive oil 4:1 [v/v] on the shaved abdomen with a surface area of about 10 cm^2 on test days 0. and 1.) triggers an immune reaction, which results in the sensitization of the animals against the specific agent, without “visible” symptoms occurring. Only after a sensitization time of 4-5 days, in which populations of DNFB-specific lymphocytes of “memory” type have formed in the draining lymph nodes, can a renewed contact (20 il of a 0.5% (w/v) DNFB solution in acetone/olive oil 4:1 [v/v]) trigger an inflammatory skin reaction with the contact allergen at any skin area (here: on both ears, treated surface area/ear about 2 cm^2). This second phase, which is also referred to as the trigger or “challenge,” ends in an eczematous lesion on the second contact site. The evaluation of the extent of the inflammatory reaction or the success of treatment is performed routinely 24 hours after the triggering, since at this time, the parameters that are to be analyzed (ear thickness and cell infiltration as a yardstick for the edema) have reached a plateau. The model of the DNFB-induced contact allergy allows the examination of the action of systemically or topically administered test substances with immunosuppressive/immunomodulating or inflammation-inhibiting properties. In the study on immunomodulating properties of calcitriol derivatives, the latter are administered once daily intragastrically in physiological common salt solution (0.9% NaCl) with an admixture of 0.085% Myrj 53) around the time of sensitization (beginning two days before and one day before sensitization, on the day of sensitization and on day 1 and 2 after sensitization). As side-effect parameters that are typical of vitamin D, the determination of the calcium level in the urine of the treated animals is used at the latest 24 hours after the last treatment with the substance. The calcium content is determined by flame-photometry. The significance of differences occurring between substance groups and controls as well as between test substance and reference substance are supported with suitable statistic processes. The therapeutic range of the test substances and calcitriol as a reference substance is indicated as a dose ratio DR (DR=factor of hypercalcemic threshold dose/immunosuppressive threshold dose).

For series [4], the target named is T1, vitamin D receptor (Sus scrofa, UniProt A3RGC1).
T1 sequence (A3RGC1 1-427): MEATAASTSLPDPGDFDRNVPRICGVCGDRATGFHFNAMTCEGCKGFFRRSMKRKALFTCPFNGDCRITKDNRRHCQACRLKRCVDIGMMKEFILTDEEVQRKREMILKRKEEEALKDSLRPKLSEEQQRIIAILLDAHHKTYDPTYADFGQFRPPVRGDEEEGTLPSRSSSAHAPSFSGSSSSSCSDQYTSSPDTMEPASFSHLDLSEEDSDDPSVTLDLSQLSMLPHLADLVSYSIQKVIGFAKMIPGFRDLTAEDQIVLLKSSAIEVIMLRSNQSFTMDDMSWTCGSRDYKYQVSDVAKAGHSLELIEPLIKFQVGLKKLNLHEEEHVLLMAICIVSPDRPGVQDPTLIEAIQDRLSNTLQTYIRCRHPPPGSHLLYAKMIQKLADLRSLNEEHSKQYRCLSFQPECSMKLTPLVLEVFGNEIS
Description: calcitriol-receptor test (competition with 3H-calcitriol, protein extract from intestines of juvenile pigs).
Description: It is carried out using a protein extract from the intestines of juvenile pigs. […] To this end, 250 il of a charcoal-dextran suspension is fed to each test tube and incubated at 4° C. for 20 minutes. Then, the samples are centrifuged at 10,000 g for 5 minutes at 4° C. The supernatant is decanted and measured in a á-counter after 1 hour of equilibration in Picofluor 15™.
The competition curves that are obtained at various concentrations of test substance as well as of reference substance (unlabeled calcitriol) at constant concentration of the reference substance (^3H-calcitriol) are placed in relation to one another, and a competition factor (KF) is determined.
It is defined as a quotient of the concentrations of the respective test substance and the reference substance, which are necessary for 50% competition:
KF=Concentration of test substance at 50% competition
Concentration of reference substance at 50% competition

The text below walks through data of patent publication US20030166622A1, “Vitamin D derivatives with acyloxy groups in the side chains, process for their production, and the use for the production of pharmaceutical agents” (Schering AG, priority 2001, published 2003).

Entries after “also recorded” stand apart in the source; their conditions may differ.

Turning to `C=C1/C(=C\C=C2/CCC[C@]3(C)[C@@H]([C@H](C)CC[C@@H](OC(C)=O)C4(c5ncc(CCCC)o5)CC4)CC[C@@H]23)C[C@@H](O)C[C@@H]1O` [Compound 3b, (5Z,7E)-(1S,3R,24R)-24-(Acetoxy)-25-(5-butyloxazole-2-yl)-26,27-cyclo-9,10-secocholesta-5,7,10(19)-triene-1,3-diol], in series [1], the “DR (HL 60) (dose ratio test substance/reference substance for comparable semi-maximum actions)” value was over 170. Besides, the “DR (Ca) (dose ratio for hypercalcemia, test substance dose/reference substance dose for comparable actions)” value in series [2] is recorded as over 1000. The “activity in vivo (prevention of the formation of edemas)” value in series [3] is listed as “therapeutically active in vivo”. The “KF (competition factor: concentration of test substance / reference substance at 50% competition)” value in series [4] (relative to unlabeled calcitriol, 3H-calcitriol 5x10^-10 mol/l, 2 hours at 4° C) is on record as over 100. Moreover, the activity in vitro entry in series [4] (result in words, summary of the in vitro tests of the table (calcitriol-receptor test and HL 60)) is reported as “inactivity; also recorded: deficient activity”.
